For one assay, the system named is IL-2ss-TCTP tumors. The experiment in a line: Proliferation assay of subcutaneously transplanted IL-2ss-TCTP SL4 tumor in C57BL/6 mice. The format is in vivo, mouse. Conditions: 50 mg/kg orally, FIG. 11(i). Here is the method: In FIG. 11(a), PECs (2×10^5 cells) or SL4 cells (1×10^5 cells) were stimulated with recombinant TCTP for 2 hours. Thereafter, Cxcl1 mRNA was quantified by qRT-PCR (n=3). In FIG. 11(b), the Cxcl1 mRNA of TCTP WO SL4 cells and TCTP KO SL4 cells was quantified by RT-qPCR. n=3. In FIG. 11(c), SL4 cells (2×10^5 cells) were subcutaneously transplanted into C57BL/6 mice (n=3). On Day 21 after the transplantation, single cell suspensions were prepared from tumors. Thereafter, various immune cells (PMN-MDSCs, M-MDSCs, TAMS, DCs, T cells, B cells, and NK cells) were separated, and the Cxcl2 mRNA of individual cells was then quantified by qRT-PCR. In FIG. 11(d), PECs (2×10^5 cells) were stimulated with recombinant IL-la for 2 hours. Thereafter, Cxcl1 mRNA was quantified by qRT-PCR (n=3). […] HEK293T cells transiently expressing TLR2-YFP and Flag-TCTP were subjected to immunoprecipitation with an anti-GFP antibody, and thereafter, were analyzed with an anti-Flag antibody (upper view), and TLR2 and TCTP in the whole cell lysate were detected (lower view). […] The tumor volume was measured over time. In FIG. 11(i), IL-2ss-TCTP SL4 cells (2×10^5 cells) were subcutaneously transplanted into C57BL/6 mice, and the tumor volume was then measured over time. […]

In another assay the target is T1, mouse TCTP (mouse, UniProt P63028 1-172).
T1 construct: also called TCTP in the whole cell lysate of TCTP WT SL4 cells; TCTP released from dead SL4 cells
T1 sequence (looked up): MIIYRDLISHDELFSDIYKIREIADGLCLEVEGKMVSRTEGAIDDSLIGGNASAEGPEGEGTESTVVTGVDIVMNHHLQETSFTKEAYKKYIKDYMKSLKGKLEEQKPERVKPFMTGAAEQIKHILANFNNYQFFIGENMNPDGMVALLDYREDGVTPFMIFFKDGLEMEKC
The experiment in a line: immunoblotting of whole cell lysates of TCTP WT and TCTP KO SL4 cells. In general terms: In western blotting, separated proteins are transferred to a membrane and probed.

Consider `COc1cccc(C=O)c1O` [O -vanillin, O-vanillin], for which the “proliferation of IL-2ss-TCTP tumors” value with IL-2ss-TCTP tumors is recorded as “suppressed”.

B1: 55F3 antibody (antibody, V domains shown)
VH: DVQLQESGPGLVKPSQSLSLTCTATGYSIASDYAWNWIRQFPGNKLEWMGYINYSGSTGYNPSLKSRISITRDTSKNQFFLQLNSVTTEDTATYYCARFEAGYWGQGTTLTVSS
VL: DIKMTQSPSSMSASLGERVTITCKASQDINRYLSWFQQKPGKSPKTLIYRANRLVDGVPSRFSGSGSGQDYSLTISSLEYGDMGIYYCLQYNEFPLTFGAGTKLELKR
notes: also called 55F3E5; 55F3E5 (55F3) monoclonal antibody
With B1, in the assay with mouse TCTP, the binding result is reported as “binds”.

The record behind these values is US20230312744A1, “Modulatory Substance of Tumor Immune Microenvironment, and Preventive, Diagnostic and/or Therapeutic Utilization of the Same” (The University Of Tokyo, priority 2020, published 2023).
